Series [1] relates to Mus musculus. Description: Antiallergic activity in BALB/c mouse assessed as reduction in anti-DNP-IgE-mediated passive cutaneous anaphylaxis at 50 mg/kg, po administered once daily for 5 days followed by anti-DNP-IgE stimulation on day 4 and subsequent DNP-HSA challenge on day 5 post 1 hr compound dose and measured after 30 mins by Evans blue dye-based spectrophotometric method relative to control. It counts as functional. More on the design: scale not given: the % may be the effect or the level left.

Series [2] has as its target T1, Fatty-acid amide hydrolase 1 (Homo sapiens, UniProt O00519).
T1 sequence (O00519 whole entry): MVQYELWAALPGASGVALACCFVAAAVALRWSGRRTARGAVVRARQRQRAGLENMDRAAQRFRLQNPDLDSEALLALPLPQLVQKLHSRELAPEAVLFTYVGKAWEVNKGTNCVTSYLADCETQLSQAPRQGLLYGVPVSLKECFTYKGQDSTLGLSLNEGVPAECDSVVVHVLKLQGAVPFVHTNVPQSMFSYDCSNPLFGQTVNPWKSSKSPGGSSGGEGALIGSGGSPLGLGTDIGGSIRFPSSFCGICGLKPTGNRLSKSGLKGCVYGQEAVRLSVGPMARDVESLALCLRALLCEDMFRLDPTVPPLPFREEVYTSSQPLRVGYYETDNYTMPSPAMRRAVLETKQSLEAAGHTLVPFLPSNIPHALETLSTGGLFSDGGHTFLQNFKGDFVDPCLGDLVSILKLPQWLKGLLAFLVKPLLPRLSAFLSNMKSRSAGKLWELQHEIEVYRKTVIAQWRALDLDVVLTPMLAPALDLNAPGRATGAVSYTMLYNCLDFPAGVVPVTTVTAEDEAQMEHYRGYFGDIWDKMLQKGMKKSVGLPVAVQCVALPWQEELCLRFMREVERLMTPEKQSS
Description: Substrate activity at human FAAH expressed in baculovirus infected Sf9 cells assessed as docosahexaenoic acid formation incubated for 60 mins by HPLC analysis. To be noted: sf9, 1 h. It counts as ADME.

The test system of series [3] is RBL-2H3. Briefly: Antiallergic activity in rat RBL2H3 cells assessed as inhibition of DNP-HSA-mediated degranulation by measuring decrease in beta-hexosaminidase activity incubated for 30 mins prior to FAAH inhibitor URB597 addition further incubated for 30 mins followed by DNP-HSA stimulation and measured after 30 mins by 4-nitrophenyl 2-acetamido-2-deoxy-beta-D-glucopyranoside substrate based assay. It counts as functional, cell-based.

In series [4] the test system is RBL-2H3. Briefly: Ratio of IC50 for antiallergic activity in rat RBL2H3 cells assessed as inhibition of DNP-HSA-mediated degranulation by measuring decrease in beta-hexosaminidase activity to IC50 for antiallergic activity in rat RBL2H3 cells assessed as inhibition of DNP-HSA-mediated degranulation by measuring decrease in beta-hexosaminidase activity in presence of FAAH inhibitor URB597. The format is functional.

Series [5] concerns RBL-2H3. Briefly: Antiallergic activity in rat RBL2H3 cells assessed as inhibition of DNP-HSA-mediated degranulation by measuring decrease in beta-hexosaminidase activity incubated for 30 mins prior to CB2 antagonist AM630 addition further incubated for 30 mins followed by DNP-HSA stimulation and measured after 30 mins by 4-nitrophenyl 2-acetamido-2-deoxy-beta-D-glucopyranoside substrate based assay. It counts as functional, cell-based.

In series [6] the target is T1, Fatty-acid amide hydrolase 1. Description: Inhibition of human FAAH expressed in baculovirus infected Sf9 cells using N-(6-methoxypyridin-3-yl)octanamide as substrate measured for 15 mins by fluorescence based assay.
Series [7] has as its system RBL-2H3. Briefly: Antiallergic activity in rat RBL2H3 cells assessed as inhibition of DNP-HSA-mediated degranulation by measuring decrease in beta-hexosaminidase activity preincubated for 30 mins followed by DNP-HSA stimulation and measured after 30 mins by 4-nitrophenyl 2-acetamido-2-deoxy-beta-D-glucopyranoside substrate based assay. It counts as functional, cell-based.

In series [8] the test system is Mus musculus. Description: Antiallergic activity in BALB/c mouse assessed as reduction in anti-DNP-IgE-mediated passive cutaneous anaphylaxis at 1000 mg/kg, po administered once daily for 5 days followed by anti-DNP-IgE stimulation on day 4 and subsequent DNP-HSA challenge on day 5 post 1 hr compound dose and measured after 30 mins by Evans blue dye-based spectrophotometric method relative to control. The format is functional. More on the design: scale not given: the % may be the effect or the level left.

Structures are written as SMILES. Bounds are passed on as bounds.

Consider `CC(C)(C(=O)O)c1ccc(C(O)CCCN2CCC(C(O)(c3ccccc3)c3ccccc3)CC2)cc1` (stereo not drawn) [FEXOFENADINE], for which, in the series with Mus musculus [1], the Activity came out at 39%.
One may read the IC50 as the concentration needed to halve the response being measured. With `CC/C=C\C/C=C\C/C=C\C/C=C\C/C=C\C/C=C\CCC(=O)NCCO`, the Drug metabolism result in series [2] was “Metabolite_Detected”. In addition, the IC50 with RBL-2H3 [3] is 7.6 µM; in the series on RBL-2H3 [5], 25 µM; in series [6], over 50 µM; in the series with RBL-2H3 [7], 25 µM. For the same compound, the “Ratio IC50” value with RBL-2H3 [4] came out at 3. For the same compound, the Activity in the series with Mus musculus [8] was 31%.

(Values after ChEMBL document CHEMBL4414618, “Structure-Activity Relationships of Fish Oil Derivatives with Antiallergic Activity in Vitro and in Vivo” (J Med Chem, 2019).)
